# Measurements from US6518243B1, “Desleucyl glycopeptide antibiotics and methods of making same” (Trustees of Princeton University, priority 1999, dated 2003).
# Experiments:
# [1] = system: E. faecalis (CL 4877); assay: Zone of inhibition screen, 96 well agar array format; type: cell-based; parameters: scale not given here
# In short: (§1)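 Compounds are screened one by one for antibacterial effect in an agar array of 96 wells, using the same set of strains throughout.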
# [2] = system: S. epidermidis (ATCC 12228); assay: as above; type: cell-based; parameters: scale not given here
# In short: as §1
# [3] = zone of inhibition relative to 1 mg/ml stock solution of p-chlorobiphenylvancomycin
# [4] = zone of inhibition relative to 1 mg/ml p-chlorobiphenylvancomycin
Compound,"zone score, E. faecalis CL 4877 [1, 3]","zone score, S. epidermidis ATCC 12228 [2, 3]","zone score, E. faecalis CL 4877 [1, 4]","zone score, S. epidermidis ATCC 12228 [2, 4]"
CC1OC(OC2C(Oc3c4cc5cc3Oc3ccc(cc3Cl)C(O)C3NC(=O)C(NC(=O)C5NC(=O)C(CC(N)=O)NC(=O)C(NC(=O)CC(NC(=O)OC(C)(C)C)C(N)=O)C(O)c5ccc(c(Cl)c5)O4)c4ccc(O)c(c4)-c4c(O)cc(O)cc4C(C(=O)O)NC3=O)OC(CO)C(O)C2O)CC(C)(NCc2ccc(-c3ccc(Cl)cc3)cc2)C1O (centres unmarked) [Compound 134],2,2,–,–
CC(=O)NC1C(=O)NC(CC(N)=O)C(=O)NC2C(=O)NC3C(=O)NC(C(=O)NC(C(=O)O)c4cc(O)cc(O)c4-c4cc3ccc4O)C(O)c3ccc(c(Cl)c3)Oc3cc2cc(c3OC2OC(CO)C(O)C(O)C2OC2CC(C)(NCc3ccc(-c4ccc(Cl)cc4)cc3)C(O)C(C)O2)Oc2ccc(cc2Cl)C1O (centres unmarked) [Compound 279],–,–,2,2
CCOC(=O)C=CC(=O)NC1C(=O)NC(CC(N)=O)C(=O)NC2C(=O)NC3C(=O)NC(C(=O)NC(C(=O)O)c4cc(O)cc(O)c4-c4cc3ccc4O)C(O)c3ccc(c(Cl)c3)Oc3cc2cc(c3OC2OC(CO)C(O)C(O)C2OC2CC(C)(NCc3ccc(-c4ccc(Cl)cc4)cc3)C(O)C(C)O2)Oc2ccc(cc2Cl)C1O (centres unmarked) [Compound 296],–,–,2,2
CC1OC(OC2C(Oc3c4cc5cc3Oc3ccc(cc3Cl)[C@@H](O)[C@@H](NC(=O)/C=C\C(N)=O)C(=O)N[C@@H](CC(N)=O)C(=O)N[C@H]5C(=O)NC3C(=O)N[C@H](C(=O)N[C@@H](C(=O)O)c5cc(O)cc(O)c5-c5cc3ccc5O)[C@H](O)c3ccc(c(Cl)c3)O4)OC(CO)C(O)C2O)CC(C)(NCc2ccc(-c3ccc(Cl)cc3)cc2)C1O (some centres unmarked) [Compound 170],2,2,–,–
CC1NC(=O)NC1CCCCCC(=O)NC1C(=O)NC(CC(N)=O)C(=O)NC2C(=O)NC3C(=O)NC(C(=O)NC(C(=O)O)c4cc(O)cc(O)c4-c4cc3ccc4O)C(O)c3ccc(c(Cl)c3)Oc3cc2cc(c3OC2OC(CO)C(O)C(O)C2OC2CC(C)(NCc3ccc(-c4ccc(Cl)cc4)cc3)C(O)C(C)O2)Oc2ccc(cc2Cl)C1O (centres unmarked) [Compound 284],–,–,2,2
CC1OC(OC2C(Oc3c4cc5cc3Oc3ccc(cc3Cl)C(O)C3NC(=O)C(NC(=O)C5NC(=O)C(CC(N)=O)NC(=O)C(NC(=O)CNC(=O)C=Cc5ccco5)C(O)c5ccc(c(Cl)c5)O4)c4ccc(O)c(c4)-c4c(O)cc(O)cc4C(C(=O)O)NC3=O)OC(CO)C(O)C2O)CC(C)(NCc2ccc(-c3ccc(Cl)cc3)cc2)C1O (centres unmarked) [Compound 306],–,–,2,2
CC1OC(OC2C(Oc3c4cc5cc3Oc3ccc(cc3Cl)C(O)C3NC(=O)C(NC(=O)C5NC(=O)C(CC(N)=O)NC(=O)C(NC(=O)CNC=O)C(O)c5ccc(c(Cl)c5)O4)c4ccc(O)c(c4)-c4c(O)cc(O)cc4C(C(=O)O)NC3=O)OC(CO)C(O)C2O)CC(C)(NCc2ccc(-c3ccc(Cl)cc3)cc2)C1O (centres unmarked) [Compound 193],2,2,–,–
CC(=O)CCC(=O)NC1C(=O)NC(CC(N)=O)C(=O)NC2C(=O)NC3C(=O)NC(C(=O)NC(C(=O)O)c4cc(O)cc(O)c4-c4cc3ccc4O)C(O)c3ccc(c(Cl)c3)Oc3cc2cc(c3OC2OC(CO)C(O)C(O)C2OC2CC(C)(NCc3ccc(-c4ccc(Cl)cc4)cc3)C(O)C(C)O2)Oc2ccc(cc2Cl)C1O (centres unmarked) [Compound 295],–,–,2,2
CSCCC(NC(C)=O)C(=O)NC1C(=O)NC(CC(N)=O)C(=O)NC2C(=O)NC3C(=O)NC(C(=O)NC(C(=O)O)c4cc(O)cc(O)c4-c4cc3ccc4O)C(O)c3ccc(c(Cl)c3)Oc3cc2cc(c3OC2OC(CO)C(O)C(O)C2OC2CC(C)(NCc3ccc(-c4ccc(Cl)cc4)cc3)C(O)C(C)O2)Oc2ccc(cc2Cl)C1O (centres unmarked) [Compound 182],2,2,–,–
CC1OC(OC2C(Oc3c4cc5cc3Oc3ccc(cc3Cl)C(O)C3NC(=O)C(NC(=O)C5NC(=O)C(CC(N)=O)NC(=O)C(NC(=O)C(N)CC(N)=O)C(O)c5ccc(c(Cl)c5)O4)c4ccc(O)c(c4)-c4c(O)cc(O)cc4C(C(=O)O)NC3=O)OC(CO)C(O)C2O)CC(C)(NCc2ccc(-c3ccc(Cl)cc3)cc2)C1O (centres unmarked) [Compound 53],2,2,–,–
CC1OC(OC2C(Oc3c4cc5cc3Oc3ccc(cc3Cl)C(O)C3NC(=O)C(NC(=O)C5NC(=O)C(CC(N)=O)NC(=O)C(NC(=O)c5cccnc5N)C(O)c5ccc(c(Cl)c5)O4)c4ccc(O)c(c4)-c4c(O)cc(O)cc4C(C(=O)O)NC3=O)OC(CO)C(O)C2O)CC(C)(NCc2ccc(-c3ccc(Cl)cc3)cc2)C1O (centres unmarked) [Compound 237],–,–,2,2
C[C@H]1O[C@H](O[C@H]2[C@H](Oc3c4cc5cc3Oc3ccc(cc3Cl)[C@@H](O)[C@@H](NC(=O)c3ccoc3)C(=O)N[C@@H](CC(N)=O)C(=O)N[C@H]5C(=O)N[C@H]3C(=O)N[C@H](C(=O)N[C@@H](C(=O)O)c5cc(O)cc(O)c5-c5cc3ccc5O)[C@H](O)c3ccc(c(Cl)c3)O4)O[C@H](CO)[C@@H](O)[C@@H]2O)C[C@@](C)(NCc2ccc(-c3ccc(Cl)cc3)cc2)[C@H]1O [Compound 260],–,–,–,2
CC(=O)Oc1cc(C(=O)NC2C(=O)NC(CC(N)=O)C(=O)NC3C(=O)NC4C(=O)NC(C(=O)NC(C(=O)O)c5cc(O)cc(O)c5-c5cc4ccc5O)C(O)c4ccc(c(Cl)c4)Oc4cc3cc(c4OC3OC(CO)C(O)C(O)C3OC3CC(C)(NCc4ccc(-c5ccc(Cl)cc5)cc4)C(O)C(C)O3)Oc3ccc(cc3Cl)C2O)cc(OC(C)=O)c1OC(C)=O (centres unmarked) [Compound 250],–,–,–,2
CC1OC(OC2C(Oc3c4cc5cc3Oc3ccc(cc3Cl)C(O)C3NC(=O)C(NC(=O)C5NC(=O)C(CC(N)=O)NC(=O)C(NC(=O)C[N+](C)(C)C)C(O)c5ccc(c(Cl)c5)O4)c4ccc(O)c(c4)-c4c(O)cc(O)cc4C(C(=O)O)NC3=O)OC(CO)C(O)C2O)CC(C)(NCc2ccc(-c3ccc(Cl)cc3)cc2)C1O (centres unmarked) [Compound 129],2,2,–,–
COC(=O)CCC(=O)NC1C(=O)NC(CC(N)=O)C(=O)NC2C(=O)NC3C(=O)NC(C(=O)NC(C(=O)O)c4cc(O)cc(O)c4-c4cc3ccc4O)C(O)c3ccc(c(Cl)c3)Oc3cc2cc(c3OC2OC(CO)C(O)C(O)C2OC2CC(C)(NCc3ccc(-c4ccc(Cl)cc4)cc3)C(O)C(C)O2)Oc2ccc(cc2Cl)C1O (centres unmarked) [Compound 305],–,–,–,2
CC1OC(OC2C(Oc3c4cc5cc3Oc3ccc(cc3Cl)C(O)C3NC(=O)C(NC(=O)C5NC(=O)C(CC(N)=O)NC(=O)C(NC(=O)C(N)=O)C(O)c5ccc(c(Cl)c5)O4)c4ccc(O)c(c4)-c4c(O)cc(O)cc4C(C(=O)O)NC3=O)OC(CO)C(O)C2O)CC(C)(NCc2ccc(-c3ccc(Cl)cc3)cc2)C1O (centres unmarked) [Compound 327],–,–,–,2
COc1ccc(C=CC(=O)NC2C(=O)NC(CC(N)=O)C(=O)NC3C(=O)NC4C(=O)NC(C(=O)NC(C(=O)O)c5cc(O)cc(O)c5-c5cc4ccc5O)C(O)c4ccc(c(Cl)c4)Oc4cc3cc(c4OC3OC(CO)C(O)C(O)C3OC3CC(C)(NCc4ccc(-c5ccc(Cl)cc5)cc4)C(O)C(C)O3)Oc3ccc(cc3Cl)C2O)cc1 (centres unmarked) [Compound 273],–,–,–,2
Cc1cn(CC(=O)NC2C(=O)NC(CC(N)=O)C(=O)NC3C(=O)NC4C(=O)NC(C(=O)NC(C(=O)O)c5cc(O)cc(O)c5-c5cc4ccc5O)C(O)c4ccc(c(Cl)c4)Oc4cc3cc(c4OC3OC(CO)C(O)C(O)C3OC3CC(C)(NCc4ccc(-c5ccc(Cl)cc5)cc4)C(O)C(C)O3)Oc3ccc(cc3Cl)C2O)c(=O)[nH]c1=O (centres unmarked) [Compound 207],–,–,–,2
CC1OC(OC2C(Oc3c4cc5cc3Oc3ccc(cc3Cl)C(O)C3NC(=O)C(NC(=O)C5NC(=O)C(CC(N)=O)NC(=O)C(NC(=O)c5ccc(O)nc5)C(O)c5ccc(c(Cl)c5)O4)c4ccc(O)c(c4)-c4c(O)cc(O)cc4C(C(=O)O)NC3=O)OC(CO)C(O)C2O)CC(C)(NCc2ccc(-c3ccc(Cl)cc3)cc2)C1O (centres unmarked) [Compound 276],–,–,–,2
COC(=O)CCCC(=O)NC1C(=O)NC(CC(N)=O)C(=O)NC2C(=O)NC3C(=O)NC(C(=O)NC(C(=O)O)c4cc(O)cc(O)c4-c4cc3ccc4O)C(O)c3ccc(c(Cl)c3)Oc3cc2cc(c3OC2OC(CO)C(O)C(O)C2OC2CC(C)(NCc3ccc(-c4ccc(Cl)cc4)cc3)C(O)C(C)O2)Oc2ccc(cc2Cl)C1O (centres unmarked) [Compound 304],–,–,–,2
CC1OC(OC2C(Oc3c4cc5cc3Oc3ccc(cc3Cl)C(O)C3NC(=O)C(NC(=O)C5NC(=O)C(CC(N)=O)NC(=O)C(NC(=O)Cc5cccs5)C(O)c5ccc(c(Cl)c5)O4)c4ccc(O)c(c4)-c4c(O)cc(O)cc4C(C(=O)O)NC3=O)OC(CO)C(O)C2O)CC(C)(NCc2ccc(-c3ccc(Cl)cc3)cc2)C1O (centres unmarked) [Compound 318],–,–,–,2
CC1OC(OC2C(Oc3c4cc5cc3Oc3ccc(cc3Cl)C(O)C3NC(=O)C(NC(=O)C5NC(=O)C(CC(N)=O)NC(=O)C(NC(=O)Cc5ccc(F)c(F)c5)C(O)c5ccc(c(Cl)c5)O4)c4ccc(O)c(c4)-c4c(O)cc(O)cc4C(C(=O)O)NC3=O)OC(CO)C(O)C2O)CC(C)(NCc2ccc(-c3ccc(Cl)cc3)cc2)C1O (centres unmarked) [Compound 252],–,–,–,2
CC1OC(OC2C(Oc3c4cc5cc3Oc3ccc(cc3Cl)C(O)C3NC(=O)C(NC(=O)C5NC(=O)C(CC(N)=O)NC(=O)C(NC(=O)c5cccc(F)c5)C(O)c5ccc(c(Cl)c5)O4)c4ccc(O)c(c4)-c4c(O)cc(O)cc4C(C(=O)O)NC3=O)OC(CO)C(O)C2O)CC(C)(NCc2ccc(-c3ccc(Cl)cc3)cc2)C1O (centres unmarked) [Compound 259],–,–,–,2
